{
  "source": "patent US6914049B2",
  "about": "“IGF-binding protein-derived peptide or small molecule” (Bioexpertise, LLC, priority 2001, dated 2005)",
  "key": {"[1]": {"experiment": "Binding of IGFBP-3 to IMAC (NTA) resin charged with metal", "conditions": "approx. 1 mg loaded", "method": "(§1) Binding of IGFBP-3 to immobilized metal affinity chromatography (IMAC) resin charged with various metals was measured. Approximately 1 mg of IGFBP-3 was loaded onto each column (NTA resin, Sigma Chemical Co., St. Louis, Mo.). The “percentage bound” was calculated by measuring OD280 of load, flow-through, wash and eluate at 60 mM imidazole. Typical recoveries were 85-95%."}, "[2]": {"experiment": "IMAC of IGFBP-3 on Ni++ and Zn++ resins", "type": "binding", "method": "Panels a and b (FIGS. 5A and 5B) show SDS-PAGE analysis of samples from Ni^++ and Zn^++ IMAC, respectively. FT indicates column flowthrough; W indicates wash; 50 indicates 50 mM imidazole wash; 60 indicates 60 mM imidazole wash; E indicates 1 M imidazole elution buffer; S indicates 1 M EDTA stripping buffer.\nThis previously unknown property of IGFBP-3 is intriguing and has a number of practical implications among which the ability to capture products using immobilized metal affinity (IMAC) resins leads to a number of potential applications in therapeutic, high-throughput discovery, and other research arenas."}, "HEK 293 cells [3]": {"test_system": "HEK 293 cells", "experiment": "IGF-independence of apoptosis stimulation, caspase-3", "type": "cell-based, human", "method": "HEK 293 cells were cultured under stressed conditions (low serum or in the presence of paclitaxel) with and without IGFBP-3 (50 ng/ml) or MBD2 (50 ng/ml). Apoptosis was assayed using the caspase-3 assay as described in Example 1."}, "HEK293 cells [4]": {"test_system": "HEK293 cells", "experiment": "Co-apoptotic activity of IGFBP-3 and paclitaxel, caspase-3", "type": "cell-based, human", "conditions": "200 ng/ml antibody, 30 minutes pretreatment; FIG. 8B", "quoted_text": "Co-aptotic activity of IGFBP-3 in combination with paclitaxel was measured in the HEK293 assay described in Example 1. HEK293 cells were grown in DMEM plus 8% FCS, then incubated in 0.3 ng/ml of paclitaxel (TAXOL®), 50 ng/ml of IGFBP-3, or a combination of the two. Some cultures were pretreated for 30 minutes with 200 ng/ml of anti-beta-1-integrin antibody (Pharmingen). Caspase-3 was assayed using the ApoAlert caspase-3 kit from Clontech Inc."}, "[5]": {"experiment": "Binding of IGFBP-3 to IMAC (NTA) resin without metal", "conditions": "metal none; approx. 1 mg loaded", "method": "as §1"}, "[6]": {"test_system": "bax-alpha expression in HEK 293 cells", "experiment": "Bax-alpha and bcl-2 mRNA expression", "type": "cell-based, human", "conditions": "paclitaxel 0.3 ng/ml, 50 ng/ml; FIG. 14A", "method": "HEK 293 cells were cultured as described in Example 1, with the addition paclitaxel (0.3 ng/ml) and either IGFBP-3 or MBD2 at 50 ng/ml. Bax-alpha and bcl-2 mRNA and caspase 3 activity were assayed."}, "MDA-MB-231 cells": {"test_system": "MDA-MB-231 cells", "experiment": "Co-apoptotic activity of IGFBP-3 with cisplatin", "type": "cell-based", "conditions": "MDA-MB-231 cells and cisplatin; FIG. 8C"}, "HEK293 cells [7]": {"test_system": "HEK293 cells", "experiment": "Caspase-3 apoptosis assay on nutritionally stressed HEK293 cells (Examples 1-2)", "type": "cell-based, human", "conditions": "FIG. 4A/4B", "method": "Human embryonal kidney 293 (HEK293) cells were grown in Dulbecco's Modified Eagle Medium (D-MEM) supplemented with fetal calf serum at 2%, 4%, 6%, or 8%. When the cells reached 80-85% confluency (cell titer approximately 2.1×10^6 cells per plate), 5 μg of IGFBP-3 or buffer control was added to each plate. The cells were incubated at 37° C. overnight. The next day the medium was removed and the cells were rinsed with trypsin-EDTA (0.25% trypsin, 1 mM EDTA) plus 1× phosphate buffered saline. The cells were centrifuged and the supernatant was removed. ApoAlert caspase-3 assay kit from Clontech Inc (Palo Alto, Calif.) was used to measure apoptosis. The cells were resuspended in 50 μl of chilled cell lysis buffer and incubated on ice for 10 minutes. The resulting cell, lysates were centrifuged at 14000 rpm in a Beckman microcentrifuge for 3 minutes at 4 C. The supernatant was transferred to new tubes and 50 μl of 2× reaction buffer/DTT plus 5 μl of 1 mM caspase-3 substrate was added to each tube. After incubating at 37 C. for 1 hour in a water bath, the samples were read at 405 nm in a microplate reader.\nPeptides derived from IGFBP-3 were tested for pro-apoptotic activity essentially as described in Example 1.\nThe peptides tested are described in Table 1 (peptides marked with an asterisk include a hexahistidine tag)."}, "HEK 293 cells [8]": {"test_system": "HEK 293 cells", "experiment": "Co-apoptotic activity of MBD peptides and paclitaxel, caspase-3", "type": "cell-based, human", "conditions": "normalized to MBD2 = 100 on a molar basis; peptide 50 ng/ml, 0.3 ng/ml paclitaxel, 8 hours", "method": "Peptides (50 ng/ml) were added to 80% confluent HEK 293 cells grown in DMEM supplemented with 0.3 ng/ml paclitaxel concurrent with peptide. Caspase-3 activity was measured in cell extracts 8 hours post-addition.\n(§2) Apoptotic activity is expressed in arbitrary caspase-3 units normalized to MBD2 on a molar basis (MBD2 activity was defined as 100 units (avg. of 3 experiments); “nd” indicates “not done”; “ps” indicates phosphoserine. Metal-binding is expressed as a percentage of loaded peptide bound to a Ni-NTA resin; approximately 1-1.5 mg of peptide were loaded on the column. Cell uptake was determined using genetic fusions to GFP as described in Example 9."}, "[9]": {"test_system": "MA-16C mammary adenocarcinoma tumors", "experiment": "MA-16C mammary adenocarcinoma tumor implants", "type": "in vivo, female C3H mice", "conditions": "for Lung Metastases: animals with metastases/animals", "method": "Fragments of MA-16C mammary adenocarcinoma tumors were implanted subcutaneously into female C3H mice (8-11 animals per group). The animals were treated with vehicle alone, IGFBP-3 (4 mg/kg/day for 21 days by subcutaneous injection), doxorubicin (2 mg/kg on days 1 and 8 by intravenous injection), or IGFBP-3 plus doxorubicin. A separate study was performed where the animals were treated with vehicle alone, 5-fluorouracil (10 mg/kg on days 1-5 by intraperitoneal injection), or IGFBP-3 plus 5-fluorouracil. Tumor size was measured at day 18, and the mice were sacrificed at day 21, and the implanted tumors were removed for determination of caspase-3 activity (a marker of apoptosis-only performed for DOX groups)."}, "[10]": {"experiment": "Solubility / concentration in phosphate buffered saline", "type": "physicochemical", "conditions": "PBS", "from_the_text": "Formulation: The central domain of IGFBP-3 is exquisitely sensitive to proteolysis. Due to the limited, solubility of IGFBP-3, its low stability and pronounced tendency to aggregate, the development of suitable formulations and convenient routes of delivery for intact IGFBP-3 is challenging."}, "HEK293 cells [11]": {"test_system": "HEK293 cells", "experiment": "Co-apoptotic activity with paclitaxel in presence of plasma proteins", "type": "cell-based, human", "conditions": "50 ng/ml, 0.3 ng/ml paclitaxel, eight hours", "method": "Co-apoptotic activity of MBD peptides or IGFBP-3 with paclitaxel was tested in the presence or absence of two plasma proteins; fibronectin and fibrinogen. MBD peptides or IGFBP-3, (50 ng/ml), 0.3 ng/ml paclitaxel, and plasma proteins (200 ng/ml) were added to 80% confluent HEK293 cells grown in DMEM essentially as described in Example 8. Caspase-3 was measured after an eight hour incubation.\nApoptotic activity was calculated in arbitrary caspase-3 units normalized to MBD2 (MBD2 activity was defined as 100 units) Results are summarized in Table 4 (average of 3 experiments)."}, "[12]": {"experiment": "Metal-binding of peptides to Ni-NTA resin", "conditions": "percentage of loaded peptide bound to Ni-NTA resin; 1-1.5 mg loaded", "method": "as §2"}},
  "data": [
    {"substance": "IGFBP-3: full-length, 264 aa, IGFBP-3 (insulin-like growth factor binding protein-3)", "values": [
      {"measurement": "% IGFBP-3 bound", "setting": "[1]; Ca^++", "value": 0.0, "unit": "%"},
      {"measurement": "% IGFBP-3 bound", "setting": "[1]; Co^++", "value": 95.1, "unit": "%"},
      {"measurement": "% IGFBP-3 bound", "setting": "[1]; Fe^2+", "value": 46.6, "unit": "%"},
      {"measurement": "% IGFBP-3 bound", "setting": "[1]; Fe^3+", "value": 55.1, "unit": "%"},
      {"measurement": "% IGFBP-3 bound", "setting": "[1]; Mg^++", "value": 38.8, "unit": "%"},
      {"measurement": "% IGFBP-3 bound", "setting": "[1]; Mn^++", "value": 20.1, "unit": "%"},
      {"measurement": "% IGFBP-3 bound", "setting": "[1]; Ni^++", "value": 97.6, "unit": "%"},
      {"measurement": "% IGFBP-3 bound", "setting": "[1]; Zn^++", "value": 59.5, "unit": "%"},
      {"measurement": "binding to IMAC resins", "setting": "[2]; Ni^++ and Zn^++ IMAC, SDS-PAGE", "value": "bound both IMAC resins effectively"},
      {"measurement": "imidazole concentration that elutes from the resin", "setting": "[2]; immobilized nickel and zinc", "value": 60, "unit": "mM"},
      {"measurement": "IGF dependence of pro-apoptotic activity", "setting": "HEK 293 cells [3]; 0.3 ng/ml paclitaxel, alone or with Y60L-IGF-I, FIG. 11C", "value": "independent of the presence of IGF"},
      {"measurement": "pro-apoptotic activity under stressed conditions", "setting": "HEK 293 cells [3]; low serum or paclitaxel, 50 ng/ml, FIGS. 11A, 11B", "value": "nearly identical"},
      {"measurement": "co-apoptotic activity after anti-beta-1-integrin antibody pretreatment", "setting": "HEK293 cells [4]", "value": "greatly inhibits the co-apoptotic activity"},
      {"measurement": "% IGFBP-3 bound", "setting": "[5]", "value": 0.0, "unit": "%"},
      {"measurement": "bax-alpha expression", "setting": "[6]", "value": "stimulates bax-alpha expression"},
      {"measurement": "co-apoptotic activity", "setting": "MDA-MB-231 cells", "value": "failed to demonstrate any co-apoptotic activity"},
      {"measurement": "pro-apoptotic activity", "setting": "HEK293 cells [7]", "value": "has pro-apoptotic activity"},
      {"measurement": "Apoptotic Activity", "setting": "HEK 293 cells [8]", "value": 585, "unit": "arbitrary caspase-3 units"},
      {"measurement": "Tumor Weight", "setting": "[9]; 5FU study, 5-fluorouracil 10 mg/kg ip days 1-5, IGFBP-3 4 mg/kg/day sc", "value": "3147 + 952 mg"},
      {"measurement": "Lung Metastases", "setting": "[9]; 5FU study", "value": "1/7"},
      {"measurement": "Tumor Weight", "setting": "[9]; DOX study, IGFBP-3 4 mg/kg/day sc 21 days, doxorubicin 2 mg/kg iv days 1 and 8", "value": "2632 + 554 mg"},
      {"measurement": "Lung Metastases", "setting": "[9]; DOX study", "value": "1/7"},
      {"measurement": "Caspase-3", "setting": "[9]; DOX study, tumors removed at day 21", "value": "3.79 ± 3.25"},
      {"measurement": "maximum solubility in phosphate buffered saline", "setting": "[10]", "value": 7000, "unit": "µg/mL"},
      {"measurement": "co-apoptotic activity with Fibrinogen", "setting": "HEK293 cells [11]; Fibrinogen 200 ng/ml", "value": 1.1, "unit": "arbitrary caspase-3 units"},
      {"measurement": "co-apoptotic activity with Fibronectin", "setting": "HEK293 cells [11]; Fibronectin 200 ng/ml", "value": 3.5, "unit": "arbitrary caspase-3 units"},
      {"measurement": "co-apoptotic activity, plasma protein none", "setting": "HEK293 cells [11]; no plasma protein", "value": 100.0, "unit": "arbitrary caspase-3 units"},
      {"measurement": "Metal-binding", "setting": "[12]", "value": 93, "unit": "percentage"}
    ]}
  ]
}
